Series [1] is described as follows: Solubility of synthesized peptides in aqueous phase. It counts as physicochemical. Conditions: for solubility: in aqueous phase.
Series [2] deals with mAb C5/D5. Put plainly: Peptide competition of phage binding to C5/D5 by ELISA. As to conditions: up to 10 mM. The protocol: To mimic the possible constrained structure in phage, in vitro oxidation was performed after peptide synthesis to introduce disulfide bonds between Cysteine residues in these peptides. […] There are total four tryptophan (W) residues in CD47. W2 is part of the signal peptide and therefore is not present in the mature protein. W58 is present in the N-terminus extracellular IgV-like domain of CD47 and is conserved among many IgV super family members. W136 is also located in the putative extracellular domain whereas W157 is thought to be in a transmembrane region of the protein (Lindberg, et al., J. Cell Biol., 123(2): 485-96, 1993). Amino acids Arginine and Valine (RV/L), present in many selected CL10 and LL9 phages are adjacent in CD47 at amino acid position 132-133, two amino acids upstream from W136. Both amino acids R and V are also found close to W58. Thus, the C5/D5-binding sequence on CD47 is likely to comprise several distant residues brought into proximity by the folding of the protein.
Antibody phage binding assays were performed in microtiter plate wells (Limbro-Titertek, Flow Laboratories) which were coated with relevant antibodies (20 μg/ml) for two hours at room temperature. All subsequent incubations were performed at room temperature. […] Microtiter wells were then analyzed in a microtiter plate reader at 405 nanometers (nm).
A general note: ELISA stands for enzyme-linked immunosorbent assay.

The target of series [3] is T1, CD47-SIRPα1 binding (CD47-AP / SIRPα1-GST) (Homo sapiens, UniProt P78324).
T1 construct: Microtiter plates were coated with SIRPα1 extracellular domain fusion protein (SIRPα1-GST, 1 μg/ml) for 2 hr; A construct consisting of the extracellular domain of human CD47 fused to the catalytic domain of human placental AP; made in house
T1 sequence (P78324 31-373 limits assumed): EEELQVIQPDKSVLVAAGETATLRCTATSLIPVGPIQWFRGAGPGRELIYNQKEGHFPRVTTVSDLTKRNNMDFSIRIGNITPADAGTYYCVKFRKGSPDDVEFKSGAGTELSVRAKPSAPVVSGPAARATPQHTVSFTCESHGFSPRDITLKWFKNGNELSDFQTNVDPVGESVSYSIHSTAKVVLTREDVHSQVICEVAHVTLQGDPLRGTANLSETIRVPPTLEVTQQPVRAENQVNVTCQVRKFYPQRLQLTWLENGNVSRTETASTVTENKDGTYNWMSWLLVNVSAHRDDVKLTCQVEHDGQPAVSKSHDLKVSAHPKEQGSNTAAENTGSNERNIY
In words: CD47-AP binding to immobilized SIRPα1-GST (alkaline phosphatase activity). As to conditions: SIRPα-GST coated 2 μg/ml, CD47-AP 1-2 μg/ml. The protocol: (§1) FIG. 2C (right panel) is a bar graph that illustrates CD47-AP specifically binds to SIRPα-GST fusion protein but not SIRPβ-GST. In this panel, microtiter plates were coated with either SIRPα-GST or highly similar SIRPβ-GST (10 μg/ml) followed by blocking with BSA. To each well was then added recombinant CD47-AP followed by washing. Bound CD47-AP was then detected by assay for alkaline phosphatase after addition of appropriate substrate.
FIGS. 6A-6C are graphs that illustrate the effects of synthetic peptides on CD47-SIRPα binding. FIG. 6A illustrates the effect of peptide C5/D5.1 on CD47-SIRPα binding. […] After blocking, CD47-AP was added in the absence or presence of synthetic peptides C5/D5.1 and control peptides C5/D5.4, C5/D5.11 and C5/D5.12 (used as 1 mM each). “*” p<0.01. CD47-AP binding was then detected by assay of alkaline phosphatase activity and normalized with respect to binding in the absence of any peptide (CD47-AP only). FIG. 6B illustrates the effect of dose-dependent inhibition of CD47-SIRPα1 binding by peptide C5/D5.1 performed as in FIG. 6A but with increasing concentrations of peptide as indicated. […] Binding of these proteins were detected by a goat anti-GST antibody followed by peroxidase conjugated anti-goat secondary (for detecting SIRPα1-GST) or directly developed for alkaline phosphatase activity (for detecting CD47-AP). […]

For series [4], the target named is T2, SIRPβ-GST (Homo sapiens, UniProt O00241).
T2 construct: The extracellular domain of SIRPα1, SIRPβ1 and GST fusion proteins were produced after transfected into 293E cells; made in house; host or cells: 293E cells
T2 sequence (O00241 30-371 limits assumed): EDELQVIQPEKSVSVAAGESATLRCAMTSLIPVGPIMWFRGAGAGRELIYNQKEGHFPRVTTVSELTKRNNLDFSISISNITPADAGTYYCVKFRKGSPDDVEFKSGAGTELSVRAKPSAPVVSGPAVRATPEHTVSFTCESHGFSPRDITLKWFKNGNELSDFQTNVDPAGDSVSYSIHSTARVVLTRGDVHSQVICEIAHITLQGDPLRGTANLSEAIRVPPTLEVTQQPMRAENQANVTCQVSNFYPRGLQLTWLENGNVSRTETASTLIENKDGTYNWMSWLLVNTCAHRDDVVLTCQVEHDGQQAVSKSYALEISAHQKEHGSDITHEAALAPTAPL
In words: CD47-AP binding to SIRPβ-GST coated wells. Conditions: FIG. 2C. The protocol:
as §1
Since the above results and those of others (Jiang, et al J. Biol. Chem., 274: 559, Seiffert, et al., Blood, 94: 3633, Han, et al., J. Biol. Chem., 275: 37984, Oldenborg, et al., Science, 288: 2051) strongly implicate CD47 as a membrane receptor for SIRPα, experiments were performed to test the direct binding of the IgV loop of CD47 to SIRPα (FIG. 2B). A recombinant CD47 IgV loop fused to alkaline phosphatase (CD47-AP) was constructed as detailed in the methods and expressed in mammalian (CHO) cells in order to allow for proper folding and glycosylation. The expressed CD47-AP fusion protein was then purified by immunoaffinity chromatography using anti CD47 mAb PF3.1-Sepharose. The structure of CD47 IgV domain in the purified CD47-AP was further tested for the ability to react with multiple functionally blocking anti-CD47 extracellular domain-reactive mAbs (Liu, et al., J. Biol. Chem., 276: 40156). […]

Values after ≈ are worked out from the molar mass of the structure shown. Where a SMILES comes first, the peptide text is derived from it. Bridges are numbered along the chain shown (N, C = ends).

Broadly, the solubility is the dissolved amount per volume that the medium holds. A low value points to a poorly soluble substance. Consider `CC[C@H](C)[C@@H]1NC(=O)[C@H](C(C)C)NC(=O)[C@H](CCCNC(=N)N)NC(=O)[C@H](CCC(=O)O)NC(=O)[C@@H](N)CSSC[C@@H](C(=O)O)NC(=O)[C@H](CCCNC(=N)N)NC(=O)[C@H](C(C)C)NC(=O)[C@H](Cc2c[nH]c3ccccc23)NC(=O)CNC(=O)[C@H]([C@@H](C)O)NC(=O)CNC1=O` [C5/D5.1, CERVIGTGWVRC] (H-CERVIGTGWVRC-OH; disulfide 1-12; N-terminus and C-terminus assumed), for which the solubility in series [1] was 10 mM (≈ 13.8 mg/mL).

With “CRRVIGRVGCGC (listed as Homo sapiens) [C5/D5.3]”, in series [2], the “inhibitory effect of peptide on phage binding to C5/D5” value is “no inhibitory effects”.

The molecule `CC(C)[C@@H]1NC(=O)[C@H](Cc2c[nH]c3ccccc23)NC(=O)CNC(=O)[C@H](Cc2c[nH]cn2)NC(=O)CNC(=O)[C@@H]2CCCN2C(=O)[C@H](C(C)C)NC(=O)[C@H](CCCNC(=N)N)NC(=O)[C@H](Cc2c[nH]cn2)NC(=O)[C@@H](N)CSSC[C@@H](C(=O)O)NC(=O)[C@H](CCCNC(=N)N)NC1=O` [C5/D5.12, CHRVPGHGWVRC] (H-CHRVPGHGWVRC-OH; disulfide 1-12; N-terminus and C-terminus assumed) had a solubility in series [1] of 1 mM (≈ 1.4 mg/mL).

In turn, `CC[C@H](C)[C@H](NC(=O)[C@@H](NC(=O)[C@H](CCCNC(=N)N)NC(=O)[C@@H](N)CCC(=O)O)C(C)C)C(=O)NCC(=O)N[C@H](C(=O)NCC(=O)N[C@@H](Cc1c[nH]c2ccccc12)C(=O)N[C@H](C(=O)N[C@@H](CCCNC(=N)N)C(=O)O)C(C)C)[C@@H](C)O` [C5/D5.4, ERVIGTGWVR] (H-ERVIGTGWVR-OH; N-terminus and C-terminus assumed) displayed a solubility in series [1] of 10 mM (≈ 11.7 mg/mL).

Consider `CC[C@H](C)[C@@H]1NC(=O)[C@H](C(C)C)NC(=O)CNC(=O)[C@H](CCCNC(=N)N)NC(=O)[C@H](Cc2c[nH]c3ccccc23)NC(=O)[C@H]([C@@H](C)O)NC(=O)[C@H](CCCNC(=N)N)NC(=O)[C@H](C(C)C)NC(=O)CNC(=O)[C@@H](N)CSSC[C@@H](C(=O)O)NC(=O)[C@H](CCC(=O)O)NC1=O` [C5/D5.5, CGVRTWRGVIEC] (H-CGVRTWRGVIEC-OH; disulfide 1-12; N-terminus and C-terminus assumed), for which, in series [1], the “solubility (in words)” value is listed as “limited solubility” and the solubility amounted to 2 mM (≈ 2.75 mg/mL).

For “CD47-AP: recombinant CD47 IgV loop fused to alkaline phosphatase”, the “binding of AP fusion protein to SIRPα-GST (AP activity, OD405)” value in series [3] is on record as “bound”. Moreover, the “binding of CD47-AP to SIRPβ-GST” value in series [4] is listed as “lack of binding”.

In series [1], `CC[C@H](C)[C@@H]1NC(=O)[C@H](C(C)C)NC(=O)[C@H](CCCNC(=N)N)NC(=O)[C@H](Cc2c[nH]cn2)NC(=O)[C@@H](N)CSSC[C@@H](C(=O)O)NC(=O)[C@H](CCCNC(=N)N)NC(=O)[C@H](C(C)C)NC(=O)[C@H](Cc2c[nH]c3ccccc23)NC(=O)CNC(=O)[C@H]([C@@H](C)O)NC(=O)CNC1=O` [C5/D5.11, CHRVIGTGWVRC] (H-CHRVIGTGWVRC-OH; disulfide 1-12; N-terminus and C-terminus assumed) displayed a solubility of 10 mM (≈ 13.8 mg/mL).

The values are drawn from patent US7282556B2, “Polynucleotides and polypeptides relating to the modulation of SIRPα-CD47” (Emory University, priority 2001, dated 2007).
